From the supplement of paper PMC12137928
Where a name gives a salt, the structure may show the parent alone.

System: HCT116
Settings: 72 h
Procedure, shortened: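 IC50 and maximal efficacy were derived from four-parameter Hill curve fits. The underlying CellTiter-Glo luminescence was scaled so that vehicle equals 0% and positive control equals -100%, and was then pattern-corrected. HCT116 cells had been seeded in 1536-well plates at 250 per well.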

SMILES	IC50 cell viability (ICRF193 0 nM)	IC50 cell viability (ICRF193 200 nM)
NC[C@@H]1O[C@H](O[C@H]2[C@@H](O)[C@H](O[C@@H]3[C@@H](O)[C@H](N)C[C@H](N)[C@H]3O[C@H]3O[C@H](CO)[C@@H](O)[C@H](O)[C@H]3N)O[C@@H]2CO)[C@H](N)[C@@H](O)[C@@H]1O [PAROMOMYCIN SULFATE]	> 45.8 µM	> 45.8 µM
CC1(C)S[C@@H]2[C@H](NC(=O)COc3ccccc3)C(=O)N2[C@H]1C(=O)O [PENICILLIN V POTASSIUM]	> 45.8 µM	> 45.8 µM
N#Cc1ccc2c(c1)N(CCCN1CCC(O)CC1)c1ccccc1S2 [PERICIAZINE]	> 45.8 µM	> 45.8 µM
CC1(C)C(C=C(Cl)Cl)C1C(=O)OCc1cccc(Oc2ccccc2)c1 (configuration not stated) [PERMETHRIN]	> 45.8 µM	> 45.8 µM
CN1CCC2=C(C1)C(c1ccccc1)c1ccccc12 (configuration not stated) [PHENINDAMINE]	> 45.8 µM	> 45.8 µM
CC(C)(O)[C@@H]1[C@H]2OC(=O)[C@@H]1[C@]1(O)C[C@H]3O[C@]34C(=O)O[C@H]2[C@]14C [PICROTIN]	> 45.8 µM	> 45.8 µM
CC(N/C(=N\C#N)Nc1ccncc1)C(C)(C)C (configuration not stated) [PINACIDIL]	> 45.8 µM	> 45.8 µM
C[C@]12C=CC(=O)C=C1CC[C@@H]1[C@@H]2[C@@H](O)C[C@@]2(C)[C@H]1CC[C@]2(O)C(=O)COC(=O)CCC(=O)O [PREDNISOLONE HEMISUCCINATE]	> 45.8 µM	> 45.8 µM
CCCCC(=O)O[C@]1(C(=O)COC(C)=O)CC[C@H]2[C@@H]3CCC4=CC(=O)C=C[C@]4(C)[C@H]3[C@@H](O)C[C@@]21C [PREDNISOLONE VALERATE ACETATE]	> 45.8 µM	> 45.8 µM
CCCOc1cc(N)ccc1C(=O)OCCN(CC)CC [PROPOXYCAINE HYDROCHLORIDE]	> 45.8 µM	> 45.8 µM
CC(C)OC(=O)[C@H](C)N[P@@](=O)(OC[C@H]1O[C@@H](n2ccc(=O)[nH]c2=O)[C@](C)(F)[C@@H]1O)Oc1ccccc1 [PSI-7976]	> 45.8 µM	> 45.8 µM
C=C/C=C\CC1=C(C)[C@@H](OC(=O)[C@@H]2[C@@H](/C=C(\C)C(=O)OC)C2(C)C)CC1=O [PYRETHRIN II]	> 45.8 µM	> 45.8 µM
CCCCCCCCCCCCCCCC(=O)OC1CCCn2c1nc(C)c(CCN1CCC(c3noc4cc(F)ccc34)CC1)c2=O (configuration not stated) [Paliperidone Palmitate]	> 45.8 µM	> 45.8 µM
Cc1nc2n(c(=O)c1CCN1CCC(c3noc4cc(F)ccc34)CC1)CCCC2O (configuration not stated) [Paliperidone]	> 45.8 µM	> 45.8 µM
O=C1c2cccc3c2[C@H](CCC3)CN1[C@@H]1CN2CCC1CC2 [Palonosetron hydrochloride]	> 45.8 µM	> 45.8 µM
NCCC(O)(P(=O)(O)O)P(=O)(O)O [Pamidronic acid]	> 45.8 µM	> 45.8 µM
O=C(O)c1cc2ccccc2c(Cc2c([O-])c(C(=O)O)cc3ccccc23)c1[O-].[Na+].[Na+] [Pamoic acid disodium salt]	> 45.8 µM	> 45.8 µM
CC(=O)O[C@H]1C[C@@H]2CC[C@@H]3[C@H](CC[C@@]4(C)[C@H]3C[C@H]([N+]3(C)CCCCC3)[C@@H]4OC(C)=O)[C@@]2(C)C[C@@H]1[N+]1(C)CCCCC1 [Pancuronium bromide]	> 45.8 µM	> 45.8 µM
COc1ccnc(C[S+]([O-])c2nc3cc(OC(F)F)ccc3[nH]2)c1OC (configuration not stated) [Pantoprazole]	> 45.8 µM	> 45.8 µM

SMILES	IC50 cell viability (ICRF193 0 nM)	IC50 cell viability (ICRF193 200 nM)
CC(C)(CO)[C@@H](O)C(=O)NCCC(=O)O [Pantothenic acid]	> 45.8 µM	> 45.8 µM
CC(=O)OCC(=O)[C@@]1(O)[C@H](C)C[C@H]2[C@@H]3C[C@H](F)C4=CC(=O)C=C[C@]4(C)[C@H]3[C@@H](O)C[C@@]21C [Paramethasone acetate]	> 45.8 µM	> 45.8 µM
CCC(=O)NS(=O)(=O)c1ccc(-c2c(-c3ccccc3)noc2C)cc1 [Parecoxib]	> 45.8 µM	> 45.8 µM
CCOc1ccc(C(=O)OCCN(CC)CC)cc1 [Parethoxycaine]	> 45.8 µM	> 45.8 µM
C#CCN(C)Cc1ccccc1 [Pargyline hydrochloride]	> 45.8 µM	> 45.8 µM
C[C@H](/C=C/[C@H](C)C(C)(C)O)[C@H]1CC[C@H]2/C(=C/C=C3C[C@@H](O)C[C@H](O)C3)CCC[C@]12C [Paricalcitol-D6]	> 45.8 µM	> 45.8 µM
Fc1ccc([C@@H]2CCNC[C@H]2COc2ccc3c(c2)OCO3)cc1 [Paroxetine]	> 45.8 µM	> 45.8 µM
CCC(=O)c1ccc(O)cc1 [Paroxypropione]	> 45.8 µM	> 45.8 µM
NCCCC[C@@H]1NC(=O)[C@@H](Cc2c[nH]c3ccccc23)NC(=O)[C@H](c2ccccc2)NC(=O)[C@@H]2C[C@@H](OC(=O)NCCN)CN2C(=O)[C@H](Cc2ccccc2)NC(=O)[C@H](Cc2ccc(OCc3ccccc3)cc2)NC1=O [Pasireotide (ditrifluoroacetate)]	> 45.8 µM	> 45.8 µM
C[C@H]1COc2c(C3(N)CC3)c(F)cc3c(=O)c(C(=O)O)cn1c23 [Pazufloxacin]	> 45.8 µM	> 45.8 µM
CC(C(=O)O)c1ccc(/C=C2\CCCCC2=O)cc1 (configuration not stated) [Pelubiprofen]	> 45.8 µM	> 45.8 µM
Nc1nc2[nH]cc(CCc3ccc(C(=O)N[C@@H](CCC(=O)O)C(=O)O)cc3)c2c(=O)[nH]1 [Pemetrexed disodium heptahydrate]	> 45.8 µM	> 45.8 µM
Cc1cccn2c(=O)c(-c3nnn[nH]3)cnc12 [Pemirolast potassium]	> 45.8 µM	> 45.8 µM
Nc1nc(O)c2ncn(CCC(CO)CO)c2n1 [Penciclovir]	> 45.8 µM	> 45.8 µM
CCCCCC1Nc2cc(C(F)(F)F)c(S(N)(=O)=O)cc2S(=O)(=O)N1 (configuration not stated) [Penflutizide]	> 45.8 µM	> 45.8 µM
CC1(C)S[C@@H]2[C@H](NC(=O)Cc3ccccc3)C(=O)N2[C@H]1C(=O)O [Penicillin G Sodium]	> 45.8 µM	> 45.8 µM
CCCCC[C@@H](O)[C@H]1C(=O)O[C@H](C)[C@@H](O)/C=C/C=C/C=C/C=C/C=C(\C)[C@@H](O)[C@H](O)[C@H](O)C[C@H](O)C[C@H](O)C[C@H](O)C[C@H](O)C[C@@H]1O [Pentamycin]	> 45.8 µM	> 45.8 µM
O=C(O)CN(CCN(CC(=O)O)CC(=O)O)CCN(CC(=O)O)CC(=O)O [Pentetic acid]	> 45.8 µM	> 45.8 µM
CN[C@@H]1[C@@H](O)[C@@H](O[C@@H]2[C@H](O)[C@H](O[C@H]3OC(CN)=CC[C@H]3N)[C@@H](N)C[C@H]2N)OC[C@]1(C)O [Pentisomicin]	> 45.8 µM	> 45.8 µM

SMILES	IC50 cell viability (ICRF193 0 nM)	IC50 cell viability (ICRF193 200 nM)
C[N+]1(CCCCC[N+]2(C)CCCC2)CCCC1 [Pentolinium bitartrate]	> 45.8 µM	> 45.8 µM
OC[C@H]1O[C@@H](n2cnc3c2N=CNC[C@H]3O)C[C@@H]1O [Pentostatin]	> 45.8 µM	> 45.8 µM
CC(=O)CCCCn1c(=O)c2c(ncn2C)n(C)c1=O [Pentoxifylline]	> 45.8 µM	> 45.8 µM
Cc1c(N)nc([C@H](CC(N)=O)NC[C@H](N)C(N)=O)nc1C(=O)N[C@H](C(=O)N[C@H](C)[C@@H](O)[C@H](C)C(=O)N[C@H](C(=O)NCCc1nc(-c2nc(C(=O)NCCCN[C@@H](C)c3ccccc3)cs2)cs1)[C@@H](C)O)[C@@H](O[C@@H]1O[C@@H](CO)[C@@H](O)[C@H](O)[C@@H]1O[C@H]1O[C@H](CO)[C@@H](O)[C@H](OC(N)=O)[C@@H]1O)c1c[nH]cn1 [Peplomycin sulfate]	> 45.8 µM	> 45.8 µM
CCC(CC)[C@H](NC(C)=O)[C@@H]1[C@H](O)[C@@H](C(=O)O)C[C@H]1NC(=N)N [Peramivir]	> 45.8 µM	> 45.8 µM
FC(F)(F)C(F)(F)C(F)(F)C(F)(F)C(F)(F)F [Perflenapent]	> 45.8 µM	> 45.8 µM
FC(F)(F)C(F)(F)C(F)(F)C(F)(F)C(F)(F)C(F)(F)F [Perflexane]	> 45.8 µM	> 45.8 µM
CCCN1C[C@H](CSC)C[C@@H]2c3cccc4[nH]cc(c34)C[C@H]21 [Pergolide methanesulfonate]	> 45.8 µM	> 45.8 µM
CCC[C@H](N[C@@H](C)C(=O)N1[C@H](C(=O)O)C[C@@H]2CCCC[C@@H]21)C(=O)OCC [Perindopril]	> 45.8 µM	> 45.8 µM
OC(CN1CCCCC1)c1cc(-c2ccccc2)on1 (configuration not stated) [Perisoxal citrate]	> 45.8 µM	> 45.8 µM
CN1CCN(C2=Nc3ccccc3Cc3ccccc32)CC1 [Perlapine]	> 45.8 µM	> 45.8 µM
CCOc1ccc(/N=C(\C)Nc2ccc(OCC)cc2)cc1 [Phenacaine hydrochloride]	> 45.8 µM	> 45.8 µM
NC(=O)NC(=O)Cc1ccccc1 [Phenacemide]	> 45.8 µM	> 45.8 µM
CCOc1ccc(NC(C)=O)cc1 [Phenacetin]	> 45.8 µM	> 45.8 µM
Nc1ccc(/N=N/c2ccccc2)c(N)n1 [Phenazopyridine hydrochloride]	> 45.8 µM	> 45.8 µM
NNCCc1ccccc1 [Phenelzine]	> 45.8 µM	> 45.8 µM
CC(Oc1ccccc1)C(=O)N[C@@H]1C(=O)N2[C@@H]1SC(C)(C)[C@@H]2C(=O)O (some centres not stated) [Phenethicillin potassium salt]	> 45.8 µM	> 45.8 µM
O=C1c2ccccc2C(=O)C1c1ccccc1 [Phenindione]	> 45.8 µM	> 45.8 µM
